Like-named read-outs stand apart in the source and are kept apart here.
Legend:
[1] = test system: HCT116 human cancer cell line (colorectal cancer); test: Cytotoxicity on HCT116 human cancer cell line (resazurin, 72 h); assay type: cell-based
Source text: (§1) Brown oil, 89%. Rf 0.3 (Cyclohexane/EtOAc, 7/3). IR (neat, cm^−1): 1609, 1593, 1564, 1428, 1205, 1157. ^1H NMR (300 MHz, CDCl3): 8.08 (d, 1H, J=8.2 Hz), 7.90 (d, 1H, J=8.4 Hz), 7.77-7.72 (ddd, 1H, J=8.2 Hz, J=6.9 Hz, J=1.3 Hz), 7.44 (ddd, 1H, J=8.3 Hz, J=7.0 Hz, J=1.0 Hz), 6.49 (d, 2H, J=2.2 Hz), 6.27 (t, 1H, J=2.2 Hz), 4.90 (q, 1H, J=6.9 Hz), 3.73 (s, 6H), 2.91 (s, 3H), 1.78 (d, 3H, J=6.9 Hz). ^13C NMR (75 MHz, CDCl3): 171.8, 163.8, 161.0 (2C), 150.7, 146.9, 133.2, 128.5, 126.6, 124.7, 121.6, 106.2 (2C), 98.0, 55.4 (2C), 43.4, 26.9, 21.1. m/z MS (APCI^+): 309 (M+H)^+. Cytotoxicity Protocol. U87, H1299 and MDA-MB231 cells are grown in Dulbecco minimal essential medium (DMEM) containing 4.5 g/L glucose and supplemented with 10% foetal calf serum and 1% glutamine. K562 and HCT116 cells are grown in RPMI 1640 medium containing 10% foetal calf serum and 1% glutamine. All the cell lines are maintained in culture at 37° C. in a humid atmosphere containing 5% CO2. The cells are inoculated in 96-well culture plates in an amount of 5000 cells per well in 50 μL of culture medium. After 24 hours of culture, the molecule to be tested, dissolved in DMSO and diluted 1/1000 in suitable culture medium, is added in each well in an amount of 50 μL per well. After 72 hours of incubation, 20 μL of resazurin is added in each well. After 1 hour of incubation, emitted fluorescence is measured at 590 nm after excitation at 560 nm using the Victor fluorescence reader (Perkin-Elmer, USA). Each concentration is tested three times and each experiment is repeated three times. Protocol for Inhibition of Polymerisation of Tubulin. When tubulin is placed at a temperature of 0° C., it is in the form of free dimers. […] The IPT of the various synthesized analogues was determined on a soluble tubulin according to the method of Shelanski^7 from sheep brains where it constitutes 20 to 25% of soluble proteins. The “antitubulin” activity is evaluated according to the method of Gaskin^8 by measuring turbidity, which is proportional to the microtubule concentration in the suspension. Turbidity is measured by absorption of the suspension at 350 nm using a spectrophotometer fitted with a cell thermostatically-controlled at 37° C. The various samples were dissolved in DMSO and incubated 10 minutes at 37° C. then 5 minutes at 0° C. The tubulin assembly and disassembly curves are obtained by absorption kinetics at 350 nm as a function of time. The IC50 determined graphically is defined as the concentration of inhibitor necessary to decrease by 50% the maximum rate of assembly of the control tubulin. In Vitro Biological Study of Compounds of the Present Invention
The cytotoxic activity of the compounds was studied in vitro principally on the HCT116 human cancer cell line (colorectal cancer). The line selected for this study was incubated at 37° C. in the presence of one of the compounds added in the culture medium at various concentrations. The inhibitory concentration inducing the death of 50% of the cells (IC50) was determined after 72 hours of incubation (Table 1) for each compound. The set of experiments carried out made it possible to determine the degree of toxicity of the compounds tested by taking isoCA-4 as the reference. […] Lastly, when these first results are examined, it appears that the reduction of the double bond located between the two aromatic nuclei yields “reduced” type II derivatives about 10 times less cytotoxic than their precursors I as we had already noted during the reduction of isoCA-4 derivatives to isoerianin-type derivatives.

[2] = test system: K562 (chronic myeloid leukaemia); test: Cytotoxicity on K562 line (resazurin, 72 h); assay type: cell-based; settings: Homo sapiens
Source text: as §1
(§2) Compounds I-15, I-16 and I-19 were also evaluated on a K562 chronic myeloid leukaemia line and a K562R imatinib-resistant chronic myeloid leukaemia line.

[3] = test system: H1299 (non-small-cell lung cancer); test: Cytotoxicity on H1299 line (resazurin, 72 h); assay type: cell-based; settings: Homo sapiens, NCI-H1299
Source text: as §1, §2

[4] = test system: tubulin; test: Inhibition of polymerisation of tubulin (IPT); assay type: biochemical, sheep
Source text: as §1
The most cytotoxic compounds were selected for tests of inhibition of polymerisation of tubulin. These tests were carried out under the direction of Dr J. Dubois at Gif-sur-Yvette, France. Tubulin is purified from ewe brains according to the method of Shelanski^9 by two assembly-disassembly cycles. The stock solution (15-20 mg/mL), stored at −196° C., is thawed and diluted in assembly buffer (0.1 M MES, 0.5 mM MgCl2, 1 mM EGTA, and 1 mM GTP, pH 6.6) to have a final concentration of 10 μM. Tubulin assembly is monitored by fluorescence on 96-well plates according to the method of Barron et al.^10 Inhibitor (DMSO, 1 μL) is added to the tubulin solution (10 μM, 100 μL per well) and the solution is incubated 45 minutes at room temperature. GTP (1 mM final) is then added, the solution is mixed rapidly and fluorescence (λex=350 nm, λem=440 nm) is measured on a Wallac Victor fluorometer (Perkin Elmer). The inhibition of 50% of the maximum rate of assembly (IC50) is determined in duplicate or triplicate on 10 concentrations bracketing the IC50.

[5] = in the presence of hepatocytes; cited from earlier work
[6] = test system: K562R imatinib-resistant chronic myeloid leukaemia line; test: Cytotoxicity on K562R line (72 h); assay type: cell-based; settings: Homo sapiens, K-562R; Table 2; 50% cell death after 72 hours of incubation
Source text: Brown oil, 89%. Rf 0.3 (Cyclohexane/EtOAc, 7/3). IR (neat, cm^−1): 1609, 1593, 1564, 1428, 1205, 1157. ^1H NMR (300 MHz, CDCl3): 8.08 (d, 1H, J=8.2 Hz), 7.90 (d, 1H, J=8.4 Hz), 7.77-7.72 (ddd, 1H, J=8.2 Hz, J=6.9 Hz, J=1.3 Hz), 7.44 (ddd, 1H, J=8.3 Hz, J=7.0 Hz, J=1.0 Hz), 6.49 (d, 2H, J=2.2 Hz), 6.27 (t, 1H, J=2.2 Hz), 4.90 (q, 1H, J=6.9 Hz), 3.73 (s, 6H), 2.91 (s, 3H), 1.78 (d, 3H, J=6.9 Hz). ^13C NMR (75 MHz, CDCl3): 171.8, 163.8, 161.0 (2C), 150.7, 146.9, 133.2, 128.5, 126.6, 124.7, 121.6, 106.2 (2C), 98.0, 55.4 (2C), 43.4, 26.9, 21.1. m/z MS (APCI^+): 309 (M+H)^+. Cytotoxicity Protocol. U87, H1299 and MDA-MB231 cells are grown in Dulbecco minimal essential medium (DMEM) containing 4.5 g/L glucose and supplemented with 10% foetal calf serum and 1% glutamine. K562 and HCT116 cells are grown in RPMI 1640 medium containing 10% foetal calf serum and 1% glutamine. All the cell lines are maintained in culture at 37° C. in a humid atmosphere containing 5% CO2. The cells are inoculated in 96-well culture plates in an amount of 5000 cells per well in 50 μL of culture medium. After 24 hours of culture, the molecule to be tested, dissolved in DMSO and diluted 1/1000 in suitable culture medium, is added in each well in an amount of 50 μL per well. […] After 1 hour of incubation, emitted fluorescence is measured at 590 nm after excitation at 560 nm using the Victor fluorescence reader (Perkin-Elmer, USA). […] The IPT of the various synthesized analogues was determined on a soluble tubulin according to the method of Shelanski^7 from sheep brains where it constitutes 20 to 25% of soluble proteins. The “antitubulin” activity is evaluated according to the method of Gaskin^8 by measuring turbidity, which is proportional to the microtubule concentration in the suspension. Turbidity is measured by absorption of the suspension at 350 nm using a spectrophotometer fitted with a cell thermostatically-controlled at 37° C. […]
as §2

[7] = test system: many human cancer lines; settings: read-out: IC50 (cytotoxic); cited from earlier work
[8] = test system: tubulin; settings: binding to the colchicine site; read-out: IC50 (inhibits tubulin assembly into microtubules); cited from earlier work
[9] = test system: endothelial cell proliferation; settings: inhibition of endothelial cell proliferation; cited from earlier work
[10] = Homo sapiens, HCT-116, Table 1, concentration inducing 50% cell death after 72 hours of incubation, read-out: HCT116 IC50
[11] = K562, Table 2, 50% cell death after 72 hours of incubation, read-out: K562 IC50
[12] = Table 2, 50% cell death after 72 hours of incubation, read-out: H1299 IC50
[13] = Table 3, inhibition of 50% of the maximum rate of assembly, tubulin 10 μM, read-out: IPT (IC50)
[14] = Homo sapiens, HCT-116, 72 hours of incubation, read-out: IC50 (cytotoxicity, HCT116)
[15] = Homo sapiens, HCT-116, Table 2, 50% cell death after 72 hours of incubation, read-out: HCT116 IC50
[16] = range given jointly for K562 and H1299 lines, read-out: IC50 (cytotoxicity, K562)
[17] = range given jointly for K562 and H1299 lines, read-out: IC50 (cytotoxicity, H1299)

SMILES | IC50 [4, 13] [nM] | IC50 [1, 10] [nM] | IC50 [2, 11] [nM] | IC50 [1, 14] [nM] | other results
C=C(c1ccc(OC)cc1)c1nc(C)cc2ccccc12 [Compound I-18, 1-(1-(4-Methoxyphenyl)vinyl)-3-methylisoquinoline] |  | 87 |  |  | 
COc1ccc(C(C)c2nc(C)nc3ccccc23)cc1 (stereo not drawn) [II-1, 4-[1-(4-Methoxy-phenyl)-ethyl]-2-methyl-quinazoline] |  | 250 |  |  | 
C=C(c1ccc(OC)c(O)c1)c1cc(OC)c(OC)c(OC)c1 [isoCA-4, Isocombretastatin A-4, reference compound] | 1000 |  | 4 |  | IC50 ([1]; Homo sapiens, HCT-116, 72 h, read-out: HCT116 IC50 (nM)): 2 nM; IC50 [3, 12]: 5 nM; metabolized [5]: < 10%
C=C(c1ccc(OC(F)(F)F)cc1)c1nc(C)nc2ccccc12 [Compound I-3, 2-Methyl-4-(1-(4-(trifluoromethoxy)phenyl)vinyl)quinazoline] |  | 2300 |  |  | 
C=C(c1ccc(OC)c(OC)c1)c1nc(Cl)nc2ccccc12 [Compound I-11, 2-Chloro-4-[1-(3,4-dimethoxy-phenyl)-vinyl]-quinazoline] |  | 700 |  |  | 
COc1ccc(C(C)c2nc(C)nc3ccccc23)cc1OC (stereo not drawn) [II-2, 4-[1-(3,4-Dimethoxy-phenyl)-ethyl]-2-methyl-quinazoline] |  | 950 |  |  | 
C=C(c1ccc(OC)cc1)c1cc(Cl)c2ccccc2n1 [Compound I-17, 4-Chloro-2-(1-(4-methoxyphenyl)vinyl)quinoline] |  | 95 |  |  | 
C=C(c1cc(OC)c(OC)c(OC)c1)c1nc(Cl)nc2ccccc12 [Compound I-12, 2-Chloro-4-[1-(3,4,5-trimethoxy-phenyl)-vinyl]-quinazoline] |  | 900 |  |  | melting point: 135 to 136 °C
C=C(c1ccc(OC)c(O)c1)c1nc(C)nc2ccccc12 [Compound I-6, 2-Methoxy-5-(1-(2-methylquinazolin-4-yl)vinyl)phenol] |  | 10 |  | < 20 | IC50 ([4]; read-out: IC50 (inhibition of polymerisation of tubulin)): 600 nM
C=C(c1ccc(OC)cc1)c1cc(C)nc2ccccc12 [Compound I-19, 4-(1-(4-Methoxyphenyl)vinyl)-2-methylquinoline] | 1090 | ≤ 1 | 17 | < 20 | IC50 ([1]; Table 2, 50% cell death after 72 hours of incubation, read-out: HCT116 IC50): ≤ 1 nM; cytotoxic activities (in words) ([1]; cell line not given): sub-nanomolar; IC50 [6]: 0.7 nM
COc1ccc(/C=C\c2cc(OC)c(OC)c(OC)c2)cc1O [CA-4, combretastatin A-4] | […] |  |  |  | IC50 [7]: […]; IC50 [8]: […]; anti-vascular activity in vitro (in words) [9]: nanomolar
C=C(c1ccc(OC)c(OC)c1)c1nc(C)nc2ccccc12 [Compound I-2, 4-[1-(3,4-Dimethoxy-phenyl)-vinyl]-2-methyl-quinazoline] |  | 460 |  |  | 

Second part, led by results:

IC50 [4, 13] [nM] | SMILES | IC50 [1, 10] [nM] | IC50 [2, 11] [nM] | IC50 [1, 14] [nM] | other results
1000 | C=C(c1ccc(OC)c(F)c1)c1nc(C)nc2ccccc12 [Compound I-5, 4-[1-(3-Fluoro-4-methoxy-phenyl)-vinyl]-2-methyl-quinazoline] | 18 |  | < 20 | 
960 | C=C(c1ccc(OC)cc1)c1cc(C#N)nc2ccccc12 [Compound I-16, 4-(1-(4-Methoxyphenyl)vinyl)quinoline-2-carbonitrile] |  | 9 | < 20 | IC50 [1, 15]: 1.6 nM; IC50 [6]: ≤ 1 nM
2900 | C=C(c1ccc(SC)cc1)c1nc(C)nc2ccccc12 [Compound I-4, 2-Methyl-4-(1-(4-(methylthio)phenyl)vinyl)quinazoline] | 52 |  |  | 
2200 | C=C(c1ccc2ccccc2c1)c1nc(C)nc2ccccc12 [Compound I-8, 2-Methyl-4-(1-(naphthalen-2-yl)vinyl)quinazoline] | 130 |  |  | melting point: 113.6 °C
1200 | C=C(c1ccc(OC)c(C#CCO)c1)c1nc(C)nc2ccccc12 [Compound I-15, 3-(2-Methoxy-5-(1-(2-methylquinazolin-4-yl)vinyl)phenyl)prop-2-yn-1-ol] |  | 8 | < 20 | IC50 [1, 15]: 1.5 nM; IC50 [6]: ≤ 1 nM
2300 | C=C(c1ccc(OC)c(N)c1)c1nc(C)nc2ccccc12 [Compound I-7, 2-Methoxy-5-(1-(2-methylquinazolin-4-yl)vinyl)aniline] | 10 |  | < 20 | 
1800 | C=C(c1ccc(OC)cc1)c1nc(C)nc2ccccc12 [Compound I-1, 4-[1-(4-Methoxy-phenyl)-vinyl]-2-methyl-quinazoline] | 38 | 34 | 40 | IC50 [2, 16]: 22 to 38 nM; IC50 [3, 12]: 22 nM; IC50 [3, 17]: 22 to 38 nM
1900 | C=C(c1ccc(OC)cc1)c1nc(Cl)nc2ccccc12 [Compound I-10, 2-Chloro-4-[1-(4-methoxy-phenyl)-vinyl]-quinazoline] | 34 | 38 | 40 | IC50 [2, 16]: 22 to 38 nM; IC50 [3, 12]: 25 nM; IC50 [3, 17]: 22 to 38 nM

— patent US10653694B2, “Cytotoxic compounds which are inhibitors of the polymerisation of tubulin” (CENTRE NATIONAL DE LA RECHERCHE SCIENTIFIQUE (CNRS), priority 2014, dated 2020)
